Measurements as given in patent US7998965B2, “Glutamate aggrecanase inhibitors” (Wyeth LLC, priority 2005, dated 2011).
Like-named read-outs stand apart in the source and are kept apart here.

Biological target: T1, purified recombinant human Aggrecanase-1 (rAgg1) (Homo sapiens, UniProt O75173)
T1 sequence (O75173 213-837): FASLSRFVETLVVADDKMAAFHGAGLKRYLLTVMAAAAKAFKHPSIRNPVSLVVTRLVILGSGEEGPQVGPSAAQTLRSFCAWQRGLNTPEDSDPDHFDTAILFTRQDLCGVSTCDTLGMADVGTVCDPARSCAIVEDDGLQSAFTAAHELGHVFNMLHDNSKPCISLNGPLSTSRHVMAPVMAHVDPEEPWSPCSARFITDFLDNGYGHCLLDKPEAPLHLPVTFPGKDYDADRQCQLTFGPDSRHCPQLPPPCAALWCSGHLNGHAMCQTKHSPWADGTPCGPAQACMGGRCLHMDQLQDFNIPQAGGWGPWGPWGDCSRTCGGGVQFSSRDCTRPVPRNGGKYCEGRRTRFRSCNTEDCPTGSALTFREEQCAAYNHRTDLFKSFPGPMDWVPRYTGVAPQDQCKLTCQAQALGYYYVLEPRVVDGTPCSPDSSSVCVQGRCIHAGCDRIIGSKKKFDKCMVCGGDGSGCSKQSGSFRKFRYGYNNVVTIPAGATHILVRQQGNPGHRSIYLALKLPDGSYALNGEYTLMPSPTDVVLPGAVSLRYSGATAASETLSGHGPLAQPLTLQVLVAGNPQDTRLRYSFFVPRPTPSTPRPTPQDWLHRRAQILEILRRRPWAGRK
Test: In vitro fluorescence screen for Aggrecanase-1 inhibitors
Type: biochemical
Conditions: for IC50: read-out: Agg1 IC50; for Ki: enzyme not given, column follows Agg1 IC50, read-out: Ki

| Compound | IC50 (Table 1) | also measured |
| --- | --- | --- |
| O=C(O)CC[C@H](NC(=O)c1ccc(-c2ccccc2)cc1)C(=O)NCCCCO [Example 5, N^2-(1,1′-biphenyl-4-ylcarbonyl)-N^1-(4-hydroxybutyl)-L-alpha-glutamine] | 1800 nM | – |
| CC(C)(CO)NC(=O)[C@H](CCC(=O)O)NC(=O)c1ccc(-c2ccccc2)cc1 [Example 6B, N^2-(biphenyl-4-ylcarbonyl)-N^1-(2-hydroxy-1,1-dimethylethyl)-L-α-glutamine] | 300 nM | – |
| CC(C)(C)CC(C)(C)NC(=O)[C@H](CCC(=O)O)NC(=O)c1ccc(-c2ccccc2)cc1 [Example 6C, N^2-(biphenyl-4-ylcarbonyl)-N^1-(1,1,3,3-tetramethylbutyl)-L-α-glutamine] | 150 nM | – |
| CC(C)(Cc1ccccc1)NC(=O)[C@H](CCC(=O)O)NC(=O)c1ccc2c(c1)Cc1ccccc1-2 [Example 6D, N^1-(1,1-dimethyl-2-phenylethyl)-N^2-(9H-fluoren-2-ylcarbonyl)-L-α-glutamine] | 45 nM | – |
| CC(C)(Cc1ccc(Cl)cc1)NC(=O)[C@H](CCC(=O)O)NC(=O)c1ccc2c(c1)Cc1ccccc1-2 [Example 6E, N^1-[2-(4-chlorophenyl)-1,1-dimethylethyl]-N^2-(9H-fluoren-2-ylcarbonyl)-L-α-glutamine] | 56 nM | – |
| Cc1cccc(CNC(=O)[C@H](CCC(=O)O)NC(=O)c2ccc3c(c2)Cc2ccccc2-3)c1 [Example 8CCCCC, N^2-(9H-fluoren-2-ylcarbonyl)-N^1-(3-methylbenzyl)-L-α-glutamine] | – | IC50 (Table 2): 107 nM |
| O=C(O)CC[C@H](NC(=O)c1ccc(-c2ccccc2)cc1)C(=O)NCCN1CCOCC1 [Example 8DDD, N^2-(biphenyl-4-ylcarbonyl)-N^1-(2-morpholin-4-ylethyl)-L-α-glutamine] | 300 nM | – |
| CCN(CC)C(=O)[C@H](CCC(=O)O)NC(=O)c1ccc(-c2ccccc2)cc1 [Example 8EEE, N^2-(biphenyl-4-ylcarbonyl)-N^1,N^1-diethyl-L-α-glutamine] | 7900 nM | – |
| CCCCN(C)C(=O)[C@H](CCC(=O)O)NC(=O)c1ccc(-c2ccccc2)cc1 [Example 8EEEEEE, N^2-(biphenyl-4-ylcarbonyl)-N-butyl-N-methyl-L-α-glutamine] | – | IC50 (Table 2): 5000 nM |
| CC(C)(Cc1ccc(F)cc1)NC(=O)[C@@H](CCC(=O)O)NC(=O)c1ccc(-c2ccccc2)cc1 [Example 8FFFF, N^2-(biphenyl-4-ylcarbonyl)-N^1-[2-(4-fluorophenyl)-1,1-dimethylethyl]-D-α-glutamine] | 3600 nM | – |
| COc1ccc(CCN(C)C(=O)[C@H](CCC(=O)O)NC(=O)c2ccc(-c3ccccc3)cc2)cc1OC [Example 8GGGGGG, N^2-(biphenyl-4-ylcarbonyl)-N-[2-(3,4-dimethoxyphenyl)ethyl]-N-methyl-L-α-glutamine] | – | IC50 (Table 2): 4200 nM |
| O=C(O)CC[C@H](NC(=O)c1ccc(-c2ccccc2)cc1)C(=O)NCC1C2CC3CC(C2)CC1C3 (stereo partly drawn) [Example 8I, N^1-(2-adamantylmethyl)-N^2-(1,1′-biphenyl-4-ylcarbonyl)-L-α-glutamine] | 500 nM | – |
| O=C(O)CC[C@H](NC(=O)c1cccc2c1Cc1ccccc1-2)C(=O)NCCCc1ccccc1 [Example 8JJJJ, N^2-(9H-fluoren-1-ylcarbonyl)-N^1-(3-phenylpropyl)-L-α-glutamine] | > 50000 nM | – |
| COc1cc(CNC(=O)[C@H](CCC(=O)O)NC(=O)c2ccc3c(c2)Cc2ccccc2-3)cc(OC)c1OC [Example 8KKKK, N^2-(9H-fluoren-2-ylcarbonyl)-N^1-(3,4,5-trimethoxybenzyl)-L-α-glutamine] | < 30 nM | Ki (Table 1): 4 nM |
| COc1cc(CNC(=O)[C@H](CCC(=O)O)NC(=O)c2cccc3c2Cc2ccccc2-3)cc(OC)c1OC [Example 8LLLL, N^2-(9H-fluoren-1-ylcarbonyl)-N^1-(3,4,5-trimethoxybenzyl)-L-α-glutamine] | – | Agg1 IC50 (nM) (Table 1): no inh |
| COc1cc(CNC(=O)[C@H](CCC(=O)O)NC(=O)c2ccc3c(c2)C(=O)c2ccccc2-3)cc(OC)c1OC [Example 8MMMM, N^2-[(9-oxo-9H-fluoren-2-yl)carbonyl]-N^1-(3,4,5-trimethoxybenzyl)-L-α-glutamine] | 47 nM | Ki (Table 1): 57 nM |
| CCCCCCNC(=O)[C@H](CCC(=O)O)NC(=O)c1ccc2c(c1)Cc1ccccc1-2 [Example 8OOOO, N^2-(9H-fluoren-2-ylcarbonyl)-N^1-hexyl-L-α-glutamine] | 52 nM | Ki (Table 1): 60 nM |

Second part, led by results:

| IC50 (Table 1) | Compound | also measured |
| --- | --- | --- |
| 111 nM | O=C(O)CCC(NC(=O)c1ccc(-c2ccccc2)cc1)C(=O)O (stereo in doubt) [Example 2, N-(1,1′-biphenyl-4-ylcarbonyl)-D-glutamic acid] | – |
| 900 nM | O=C(O)CC[C@H](NC(=O)c1ccc(Nc2ncccn2)cc1)C(=O)O [Example 1, N-[4-(pyrimidin-2-ylamino)benzoyl]-L-glutamic acid] | – |
| 12700 nM | NC(=O)[C@H](CCC(=O)O)NC(=O)c1ccc(Nc2ncccn2)cc1 [Example 3, N^2-[4-(pyrimidin-2-ylamino)benzoyl]-L-alpha-glutamine] | – |
| 1100 nM | NC(=O)[C@@H](CCC(=O)O)NC(=O)c1ccc(-c2ccccc2)cc1 [Example 4, N^2-(1,1′-biphenyl-4-ylcarbonyl)-D-alpha-glutamine] | – |
| 370 nM | O=C(O)CC[C@H](NC(=O)c1ccc(-c2ccccc2)cc1)C(=O)NCc1cc(F)cc(F)c1 [Example 8AA, N^2-(1,1′-biphenyl-4-ylcarbonyl)-N^1-(3,5-difluorobenzyl)-L-α-glutamine] | – |
| 100 nM | Nc1ccc(CNC(=O)[C@H](CCC(=O)O)NC(=O)c2ccc(-c3ccccc3)cc2)cc1 [Example 8AAAA, N^1-(4-aminobenzyl)-N^2-(1,1′-biphenyl-4-ylcarbonyl)-L-α-glutamine] | – |
| 110 nM | Nc1cccc(CNC(=O)[C@H](CCC(=O)O)NC(=O)c2ccc(-c3ccccc3)cc2)c1 [Example 8DDDD, N^1-(3-aminobenzyl)-N^2-(1,1′-biphenyl-4-ylcarbonyl)-L-α-glutamine] | – |
| 200 nM | Cc1ccccc1CNC(=O)[C@H](CCC(=O)O)NC(=O)c1ccc(-c2ccccc2)cc1 [Example 8EE, N^2-(1,1′-biphenyl-4-ylcarbonyl)-N^1-(2-methylbenzyl)-L-α-glutamine] | – |
| 400 nM | O=C(O)CC[C@H](NC(=O)c1ccc(-c2ccccc2)cc1)C(=O)NCc1ccccc1 [Example 8EEEE, N^1-benzyl-N^2-(1,1-biphenyl-4-ylcarbonyl)-L-α-glutamine] | – |
| 160 nM | Cc1cccc(CNC(=O)[C@H](CCC(=O)O)NC(=O)c2ccc(-c3ccccc3)cc2)c1C [Example 8HH, N^2-(1,1′-biphenyl-4-ylcarbonyl)-N^1-(2,3-dimethylbenzyl)-L-α-glutamine] | – |
| 200 nM | O=C(O)CCC(NC(=O)c1ccc(Nc2ncccn2)cc1)C(=O)NCc1ccccc1 (stereo not drawn) [Example 8HHHH] | – |
| 120 nM | Cc1ccc(CNC(=O)[C@H](CCC(=O)O)NC(=O)c2ccc(-c3ccccc3)cc2)cc1 [Example 8III, N^2-(1,1′-biphenyl-4-ylcarbonyl)-N^1-(4-methylbenzyl)-L-α-glutamine] | – |
| < 30 nM | O=C(O)CC[C@H](NC(=O)c1ccc2c(c1)Cc1ccccc1-2)C(=O)NCCCc1ccccc1 [Example 8IIII, N^2-(9H-fluoren-2-ylcarbonyl)-N^1-(3-phenylpropyl)-L-α-glutamine] | Ki (Table 1): 9 nM |
| 360 nM | COCCNC(=O)[C@H](CCC(=O)O)NC(=O)c1ccc(-c2ccccc2)cc1 [Example 8J, N^2-(1,1′-biphenyl-4-ylcarbonyl)-N^1-(2-methoxyethyl)-L-α-glutamine] | – |
| 300 nM | COc1ccc(CNC(=O)[C@H](CCC(=O)O)NC(=O)c2ccc(-c3ccccc3)cc2)cc1 [Example 8K, N^2-(1,1′-biphenyl-4-ylcarbonyl)-N^1-(4-methoxybenzyl)-L-α-glutamine] | – |
| 180 nM | CC(C)(C)c1ccc(CNC(=O)[C@H](CCC(=O)O)NC(=O)c2ccc(-c3ccccc3)cc2)cc1 [Example 8KK, N^2-(1,1′-biphenyl-4-ylcarbonyl)-N^1-(4-tert-butylbenzyl)-L-α-glutamine] | – |
| 230 nM | CC(C)(C)CCNC(=O)[C@H](CCC(=O)O)NC(=O)c1ccc(-c2ccccc2)cc1 [Example 8LLL, N^2-(biphenyl-4-ylcarbonyl)-N^1-(3,3-dimethylbutyl)-L-α-glutamine] | – |
| 290 nM | O=C(O)CC[C@H](NC(=O)c1ccc(-c2ccccc2)cc1)C(=O)NCc1cccc2ccccc12 [Example 8N, N^2-(1,1′-biphenyl-4-ylcarbonyl)-N^1-(1-naphthylmethyl)-L-α-glutamine] | – |
| 3400 nM | COc1cc(CNC(=O)[C@H](CCC(=O)O)NC(=O)c2ccc(Oc3ccccc3)cc2)cc(OC)c1OC [Example 8NNNN, N^2-(4-phenoxybenzoyl)-N^1-(3,4,5-trimethoxybenzyl)-L-α-glutamine] | – |
| ~40000 nM | O=C(O)CC[C@H](NC(=O)c1ccc(Br)cc1)C(=O)NCc1ccccc1 [Example 8NNNNNN, N^1-benzyl-N^2-(4-bromobenzoyl)-L-α-glutamine] | – |
| 670 nM | CC(=O)NCCNC(=O)[C@H](CCC(=O)O)NC(=O)c1ccc(-c2ccccc2)cc1 [Example 8OOOOOO, N^1-[2-(acetylamino)ethyl]-N^2-(1,1′-biphenyl-4-ylcarbonyl)-L-α-glutamine] | – |
